Test results from ChEMBL document CHEMBL4507319 (2021).

Key:
[1] = target: 5'-AMP-activated protein kinase catalytic subunit alpha-1 (Homo sapiens, UniProt Q13131); test: Cellular mechanistic pACC assay using Colo-320 cells; assay type: cell-based
[2] = target: T1, NUAK family SNF1-like kinase 1 (Homo sapiens) (UniProt O60285); conditions: Compound concentration 1000.0 nM
T1 sequence (whole entry): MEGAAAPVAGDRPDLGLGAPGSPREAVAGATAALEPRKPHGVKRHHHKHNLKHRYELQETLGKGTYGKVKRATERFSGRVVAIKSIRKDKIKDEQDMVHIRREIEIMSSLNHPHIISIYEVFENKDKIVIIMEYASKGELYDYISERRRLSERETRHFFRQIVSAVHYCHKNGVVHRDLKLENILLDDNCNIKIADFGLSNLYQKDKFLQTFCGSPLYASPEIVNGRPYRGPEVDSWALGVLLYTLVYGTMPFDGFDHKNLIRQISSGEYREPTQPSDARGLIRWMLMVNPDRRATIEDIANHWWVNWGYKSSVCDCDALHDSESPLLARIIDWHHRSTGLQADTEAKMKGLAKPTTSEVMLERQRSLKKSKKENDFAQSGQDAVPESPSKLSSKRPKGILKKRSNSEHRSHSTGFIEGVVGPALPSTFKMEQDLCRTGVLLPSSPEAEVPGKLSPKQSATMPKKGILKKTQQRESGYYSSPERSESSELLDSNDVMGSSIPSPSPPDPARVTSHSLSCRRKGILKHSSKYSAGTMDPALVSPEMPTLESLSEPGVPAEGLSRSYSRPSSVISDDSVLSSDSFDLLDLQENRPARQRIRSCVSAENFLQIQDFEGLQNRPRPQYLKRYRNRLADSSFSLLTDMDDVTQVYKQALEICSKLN

[3] = target: BMP-2-inducible protein kinase (Homo sapiens) (UniProt Q9NSY1); conditions: Compound concentration 1000.0 nM
[4] = target: Cyclin-dependent kinase 4 (Homo sapiens) (UniProt P11802); conditions: Compound concentration 1000.0 nM
[5] = target: Death-associated protein kinase 2 (Homo sapiens) (UniProt Q9UIK4); conditions: Compound concentration 1000.0 nM
[6] = target: Mitogen-activated protein kinase 15 (Homo sapiens) (UniProt Q8TD08); conditions: Compound concentration 1000.0 nM
[7] = tested on: Receptor-type tyrosine-protein kinase FLT3 (Homo sapiens), P36888 [K663Q]; conditions: Compound concentration 1000.0 nM
[8] = target: T2, Myosin light chain kinase (Homo sapiens) (UniProt Q32MK0); conditions: Compound concentration 1000.0 nM
T2 sequence (whole entry): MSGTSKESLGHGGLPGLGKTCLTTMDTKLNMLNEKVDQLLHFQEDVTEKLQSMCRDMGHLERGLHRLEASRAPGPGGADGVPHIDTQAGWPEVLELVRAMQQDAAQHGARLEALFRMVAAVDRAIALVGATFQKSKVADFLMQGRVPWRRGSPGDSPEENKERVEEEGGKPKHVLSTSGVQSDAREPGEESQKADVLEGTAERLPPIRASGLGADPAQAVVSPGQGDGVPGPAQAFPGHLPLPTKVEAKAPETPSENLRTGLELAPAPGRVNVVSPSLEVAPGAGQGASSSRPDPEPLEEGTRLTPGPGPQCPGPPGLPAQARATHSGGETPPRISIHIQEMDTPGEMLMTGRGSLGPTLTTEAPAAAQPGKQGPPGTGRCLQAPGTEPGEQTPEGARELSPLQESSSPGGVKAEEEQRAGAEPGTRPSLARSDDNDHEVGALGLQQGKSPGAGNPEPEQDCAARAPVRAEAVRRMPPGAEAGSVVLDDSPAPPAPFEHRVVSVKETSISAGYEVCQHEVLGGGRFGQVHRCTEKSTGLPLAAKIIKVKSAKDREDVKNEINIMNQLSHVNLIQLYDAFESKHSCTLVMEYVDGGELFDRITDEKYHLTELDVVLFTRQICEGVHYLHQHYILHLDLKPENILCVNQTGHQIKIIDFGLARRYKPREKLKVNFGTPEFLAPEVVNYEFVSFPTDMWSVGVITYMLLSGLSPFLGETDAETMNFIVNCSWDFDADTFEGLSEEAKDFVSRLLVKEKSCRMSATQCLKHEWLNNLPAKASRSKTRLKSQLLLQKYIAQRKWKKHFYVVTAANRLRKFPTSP

[9] = target: T3, Serine/threonine-protein kinase Nek9 (Homo sapiens) (UniProt Q8TD19); conditions: Compound concentration 1000.0 nM
T3 sequence (whole entry): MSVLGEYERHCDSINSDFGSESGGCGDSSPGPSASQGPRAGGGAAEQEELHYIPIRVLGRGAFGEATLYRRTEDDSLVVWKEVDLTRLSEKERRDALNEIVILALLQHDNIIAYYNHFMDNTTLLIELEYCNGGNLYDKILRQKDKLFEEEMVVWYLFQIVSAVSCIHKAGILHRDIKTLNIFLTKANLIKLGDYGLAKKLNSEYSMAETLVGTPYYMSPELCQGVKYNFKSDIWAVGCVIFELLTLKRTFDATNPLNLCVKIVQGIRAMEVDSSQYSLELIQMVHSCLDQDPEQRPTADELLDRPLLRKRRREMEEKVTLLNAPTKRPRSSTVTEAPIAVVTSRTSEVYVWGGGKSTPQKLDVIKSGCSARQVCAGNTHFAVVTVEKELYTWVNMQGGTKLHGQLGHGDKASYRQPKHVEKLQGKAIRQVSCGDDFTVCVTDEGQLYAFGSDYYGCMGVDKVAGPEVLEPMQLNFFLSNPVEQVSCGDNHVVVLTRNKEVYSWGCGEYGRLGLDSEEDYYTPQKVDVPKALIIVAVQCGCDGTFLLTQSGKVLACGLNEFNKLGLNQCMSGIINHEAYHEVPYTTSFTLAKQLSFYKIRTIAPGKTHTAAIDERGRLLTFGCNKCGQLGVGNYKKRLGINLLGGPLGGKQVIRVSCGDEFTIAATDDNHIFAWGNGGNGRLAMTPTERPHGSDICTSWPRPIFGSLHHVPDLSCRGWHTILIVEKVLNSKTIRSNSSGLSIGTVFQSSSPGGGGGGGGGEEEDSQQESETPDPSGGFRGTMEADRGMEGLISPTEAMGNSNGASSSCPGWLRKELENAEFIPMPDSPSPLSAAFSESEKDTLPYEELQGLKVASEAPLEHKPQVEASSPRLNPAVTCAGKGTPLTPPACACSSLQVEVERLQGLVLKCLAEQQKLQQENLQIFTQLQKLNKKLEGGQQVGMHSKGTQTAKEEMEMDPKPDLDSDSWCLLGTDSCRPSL

[10] = target: Ribosomal protein S6 kinase alpha-5 (Homo sapiens, UniProt O75582); conditions: Compound concentration 1000.0 nM
[11] = target: Ribosomal protein S6 kinase alpha-1 (Homo sapiens, UniProt Q15418); conditions: Compound concentration 1000.0 nM
[12] = target: Serine/threonine-protein kinase TNNI3K (Homo sapiens) (UniProt Q59H18); conditions: Compound concentration 1000.0 nM

Chain of 5'-AMP-activated protein kinase catalytic subunit alpha-1 (Q13131 whole entry): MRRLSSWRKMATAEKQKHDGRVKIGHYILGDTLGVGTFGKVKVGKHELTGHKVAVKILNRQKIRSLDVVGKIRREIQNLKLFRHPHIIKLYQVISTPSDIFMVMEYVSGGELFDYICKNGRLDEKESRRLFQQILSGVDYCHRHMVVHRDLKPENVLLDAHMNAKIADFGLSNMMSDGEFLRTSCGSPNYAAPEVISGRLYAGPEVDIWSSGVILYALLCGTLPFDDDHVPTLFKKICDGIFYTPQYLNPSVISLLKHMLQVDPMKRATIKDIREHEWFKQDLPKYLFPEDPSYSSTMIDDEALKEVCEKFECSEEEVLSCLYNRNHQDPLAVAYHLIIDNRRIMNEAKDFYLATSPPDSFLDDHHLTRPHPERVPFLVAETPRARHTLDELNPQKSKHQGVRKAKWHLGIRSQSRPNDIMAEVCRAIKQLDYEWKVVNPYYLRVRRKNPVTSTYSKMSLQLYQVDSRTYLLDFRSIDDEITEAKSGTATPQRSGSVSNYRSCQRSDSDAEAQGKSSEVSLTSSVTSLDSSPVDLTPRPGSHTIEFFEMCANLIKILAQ
Chain of Cyclin-dependent kinase 4 (Homo sapiens) (P11802 whole entry): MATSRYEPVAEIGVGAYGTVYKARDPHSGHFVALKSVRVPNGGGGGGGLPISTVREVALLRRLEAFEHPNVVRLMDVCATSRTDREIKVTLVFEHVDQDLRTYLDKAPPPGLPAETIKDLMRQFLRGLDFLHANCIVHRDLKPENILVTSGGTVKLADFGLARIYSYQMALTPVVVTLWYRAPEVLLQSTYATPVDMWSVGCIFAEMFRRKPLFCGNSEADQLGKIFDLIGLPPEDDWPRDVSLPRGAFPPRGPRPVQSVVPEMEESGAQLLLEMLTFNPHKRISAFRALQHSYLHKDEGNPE
Chain of Ribosomal protein S6 kinase alpha-1 (Q15418 whole entry): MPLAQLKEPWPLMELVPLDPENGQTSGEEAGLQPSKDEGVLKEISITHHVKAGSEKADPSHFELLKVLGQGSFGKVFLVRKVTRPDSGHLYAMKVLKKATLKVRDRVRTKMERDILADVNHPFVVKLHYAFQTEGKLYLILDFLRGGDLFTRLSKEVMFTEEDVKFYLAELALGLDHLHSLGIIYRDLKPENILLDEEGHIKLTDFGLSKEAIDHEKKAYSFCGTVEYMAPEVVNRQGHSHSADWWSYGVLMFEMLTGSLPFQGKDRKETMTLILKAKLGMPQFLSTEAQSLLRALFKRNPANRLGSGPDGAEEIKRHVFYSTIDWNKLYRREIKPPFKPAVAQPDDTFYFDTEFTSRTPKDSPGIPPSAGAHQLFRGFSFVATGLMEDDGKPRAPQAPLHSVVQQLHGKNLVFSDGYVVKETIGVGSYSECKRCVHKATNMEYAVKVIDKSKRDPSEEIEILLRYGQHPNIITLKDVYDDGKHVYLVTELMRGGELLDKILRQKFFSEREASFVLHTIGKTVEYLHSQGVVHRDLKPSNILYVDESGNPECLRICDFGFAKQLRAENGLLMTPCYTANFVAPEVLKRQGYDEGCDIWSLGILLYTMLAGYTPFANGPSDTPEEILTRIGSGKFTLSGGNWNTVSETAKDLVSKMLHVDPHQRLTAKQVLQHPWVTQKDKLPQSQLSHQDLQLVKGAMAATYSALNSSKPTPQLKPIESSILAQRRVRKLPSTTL
Chain of Death-associated protein kinase 2 (Homo sapiens) (Q9UIK4 whole entry, looked up): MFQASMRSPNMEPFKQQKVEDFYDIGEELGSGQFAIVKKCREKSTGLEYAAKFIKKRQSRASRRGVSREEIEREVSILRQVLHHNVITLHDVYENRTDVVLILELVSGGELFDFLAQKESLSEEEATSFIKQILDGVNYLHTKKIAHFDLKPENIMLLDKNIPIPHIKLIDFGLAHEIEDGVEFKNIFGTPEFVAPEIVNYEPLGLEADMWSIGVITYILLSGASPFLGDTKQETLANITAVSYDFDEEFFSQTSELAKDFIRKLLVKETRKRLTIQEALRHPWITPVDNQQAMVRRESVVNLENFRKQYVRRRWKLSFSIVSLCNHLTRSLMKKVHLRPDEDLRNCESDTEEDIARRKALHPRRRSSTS
Chain of BMP-2-inducible protein kinase (Homo sapiens) (Q9NSY1 whole entry, looked up): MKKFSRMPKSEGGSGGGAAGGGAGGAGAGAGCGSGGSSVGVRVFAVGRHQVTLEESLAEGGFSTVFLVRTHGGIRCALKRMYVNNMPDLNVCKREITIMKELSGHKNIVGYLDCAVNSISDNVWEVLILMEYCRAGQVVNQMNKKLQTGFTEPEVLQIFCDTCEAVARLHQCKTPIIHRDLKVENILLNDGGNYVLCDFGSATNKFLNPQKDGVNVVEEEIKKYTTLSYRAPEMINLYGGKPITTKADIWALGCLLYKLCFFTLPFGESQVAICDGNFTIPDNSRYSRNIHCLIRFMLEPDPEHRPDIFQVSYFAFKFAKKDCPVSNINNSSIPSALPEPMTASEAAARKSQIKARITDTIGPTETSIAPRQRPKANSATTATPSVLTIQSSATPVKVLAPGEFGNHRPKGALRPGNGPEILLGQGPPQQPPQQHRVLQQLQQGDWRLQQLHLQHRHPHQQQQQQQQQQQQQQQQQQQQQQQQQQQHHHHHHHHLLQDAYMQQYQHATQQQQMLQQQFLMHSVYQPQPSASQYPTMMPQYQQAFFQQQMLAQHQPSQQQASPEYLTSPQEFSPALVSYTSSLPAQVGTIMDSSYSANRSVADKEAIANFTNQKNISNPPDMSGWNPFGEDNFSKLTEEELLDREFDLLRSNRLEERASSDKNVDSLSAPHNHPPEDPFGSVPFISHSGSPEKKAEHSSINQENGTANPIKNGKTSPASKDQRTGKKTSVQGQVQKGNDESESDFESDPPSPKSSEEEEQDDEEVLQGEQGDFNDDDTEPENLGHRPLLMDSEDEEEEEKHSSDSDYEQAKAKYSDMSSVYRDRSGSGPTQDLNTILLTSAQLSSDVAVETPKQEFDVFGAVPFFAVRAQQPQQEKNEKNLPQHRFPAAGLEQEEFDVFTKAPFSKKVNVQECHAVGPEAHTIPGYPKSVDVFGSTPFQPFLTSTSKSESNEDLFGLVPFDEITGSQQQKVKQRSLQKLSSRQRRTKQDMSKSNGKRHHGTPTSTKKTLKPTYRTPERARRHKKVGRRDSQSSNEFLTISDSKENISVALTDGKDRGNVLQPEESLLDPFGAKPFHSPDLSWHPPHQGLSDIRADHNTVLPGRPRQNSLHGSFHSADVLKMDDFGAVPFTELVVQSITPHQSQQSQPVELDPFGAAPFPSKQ
Chain of Mitogen-activated protein kinase 15 (Homo sapiens) (Q8TD08 whole entry): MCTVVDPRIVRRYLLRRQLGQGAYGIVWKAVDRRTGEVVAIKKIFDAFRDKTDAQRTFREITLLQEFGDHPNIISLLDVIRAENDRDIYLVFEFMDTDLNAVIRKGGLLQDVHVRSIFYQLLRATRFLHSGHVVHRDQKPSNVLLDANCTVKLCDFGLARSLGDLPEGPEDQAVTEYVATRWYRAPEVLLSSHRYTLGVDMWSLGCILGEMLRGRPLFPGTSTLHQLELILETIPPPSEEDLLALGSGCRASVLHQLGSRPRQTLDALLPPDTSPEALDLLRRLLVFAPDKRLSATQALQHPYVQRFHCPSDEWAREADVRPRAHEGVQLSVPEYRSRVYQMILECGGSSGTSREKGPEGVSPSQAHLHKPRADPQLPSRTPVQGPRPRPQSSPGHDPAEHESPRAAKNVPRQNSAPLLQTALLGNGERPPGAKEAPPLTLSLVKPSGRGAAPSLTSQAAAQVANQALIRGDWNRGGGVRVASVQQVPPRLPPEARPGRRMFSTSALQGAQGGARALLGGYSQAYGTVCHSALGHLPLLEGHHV
Chain of Ribosomal protein S6 kinase alpha-5 (O75582 whole entry, looked up): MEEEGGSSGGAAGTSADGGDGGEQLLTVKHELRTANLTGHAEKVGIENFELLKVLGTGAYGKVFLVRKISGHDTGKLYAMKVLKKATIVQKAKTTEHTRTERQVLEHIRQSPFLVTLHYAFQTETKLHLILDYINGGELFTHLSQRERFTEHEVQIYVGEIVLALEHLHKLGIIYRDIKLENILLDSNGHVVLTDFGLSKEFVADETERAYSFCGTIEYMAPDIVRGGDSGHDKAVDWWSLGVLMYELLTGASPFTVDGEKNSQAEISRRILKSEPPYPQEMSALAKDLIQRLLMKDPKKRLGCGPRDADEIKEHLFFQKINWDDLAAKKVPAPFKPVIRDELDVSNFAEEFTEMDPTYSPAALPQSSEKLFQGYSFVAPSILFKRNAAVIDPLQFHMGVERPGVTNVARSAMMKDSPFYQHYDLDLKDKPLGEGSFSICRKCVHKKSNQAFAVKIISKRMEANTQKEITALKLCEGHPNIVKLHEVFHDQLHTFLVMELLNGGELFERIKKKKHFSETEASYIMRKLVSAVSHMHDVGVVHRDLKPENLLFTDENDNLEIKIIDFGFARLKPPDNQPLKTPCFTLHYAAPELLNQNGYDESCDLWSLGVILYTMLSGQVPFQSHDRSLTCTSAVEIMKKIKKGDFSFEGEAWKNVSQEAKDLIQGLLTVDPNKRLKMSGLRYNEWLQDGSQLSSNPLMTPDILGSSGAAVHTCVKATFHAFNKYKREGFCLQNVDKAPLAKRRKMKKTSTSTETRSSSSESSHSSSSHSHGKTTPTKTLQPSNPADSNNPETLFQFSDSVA

| SMILES | IC50 [1] | residual activity [2] [%] | residual activity [3] [%] | residual activity [4] [%] | residual activity [5] [%] | residual activity [6] [%] | residual activity [7] [%] | residual activity [8] [%] | residual activity [9] [%] | residual activity [10] [%] | residual activity [11] [%] | residual activity [12] [%] |
| --- | --- | --- | --- | --- | --- | --- | --- | --- | --- | --- | --- | --- |
| CC1=C(C#N)C(c2ccc3c(c2)c(NC(=O)c2ccccc2C)nn3C)C(C#N)=C(C)N1 [BAY-974] | > 30000 nM (not active) | 95 | 100 | 79 | 98 | 89 | 100 | 86 | 100 | 91 | 100 | 96 |
| CCc1ccccc1C(=O)Nc1n[nH]c2c(C)c(F)c(C3C(C#N)=C(C)N(C)C(C)=C3C#N)cc12 [BAY-3827] | 390 nM | 33 | 100 | 75 | 63 | 81 | 13 | 100 | 93 | 1 | 100 | 87 |
